Source: US20240208912A1 (Mirati Therapeutics, Inc., priority 2021, published 2024)
Where a name gives a salt, the structure may show the parent alone. Read-outs that look alike come from different tables or passages of the source.

Legend:
[1] = system: PRMT5-dependent Symmetric Di-methyl Arginine signal in HCT116 homozygous MTAP Knockout cells; test: SYM11 In-Cell Western in HCT116 homozygous MTAP knockout cells; assay type: cell-based; details: read-out: In-cell-Western (SYM11) IC50 (nM) HCT116 MTAP_KO, 4 days of treatment, SYM11/DRAQ5 ratio as percent of DMSO control
Description: HCT116 cells were genetically engineered to knock out the function of both MTAP alleles using a CRISPR/Cas9 system and an sgRNA targeting the MTAP gene. Following Cas9/MTAP sgRNA transduction, clones were screened to confirm that each allele of the MTAP gene had been inactivated (i.e., homozygous MTAP knock out) creating an MTAP-deficient cell.
Control samples were analyzed in parallel.
Briefly, on Day 0, 2,000 HCT116 parental or HCT116 homozygous MTAP knockout cells were seeded in 96 well plates in McCoy's 5A supplemented with 10% fetal bovine serum and pen/strep and the cells were incubated overnight at 37° C. plus 5% CO2. The following day, cells were treated with DMSO vehicle control or a dose response of PRMT5 inhibitors, and incubated at 37° C. plus 5% CO^2 for four days.
After 4 days of treatment, the cells were fixed by adding 50 μl of 4% paraformaldehyde solution to each well and the cells were incubated for 20 min at room temperature. The paraformaldehyde solution was removed, 150 μl of ice-cold methanol was added and the plate was placed −20° C. for 10 minutes. The methanol was removed, 150 μl of Odyssey Blocking buffer+0.05% Tween20 was added and the plate was incubated at room temperature with shaking for one hour.
The primary SYM11 antibody solution was removed by aspiration and the wells were washed three consecutive times with phosphate buffered saline containing 0.1% Tween-20 (PBST).
The secondary antibody solution was removed by aspiration and the wells were washed three consecutive times with PBST.
The SYM11 signal and the DRAQ5 signal were quantified using a Li-Cor Odyssey machine reading at […], respectively. The SYM11/DRAQ5 ratio was used to calculate the inhibition of Symmetric Dimethyl Arginine as percent of DMSO control.

[2] = system: HCT116 homozygous MTAP knockout cells; test: Proliferation assay (CellTiter-Glo, 10 days) in HCT116 homozygous MTAP knockout cells; assay type: cell-based; details: CellTiter-Glo after 10 days of treatment, read-out: Proliferation IC50 (nM) HCT116 MTAP_KO
In short: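 MTAP-null HCT116 clone made by CRISPR/Cas9 knockout of both alleles, tested beside parental cells. Cells dosed the day after seeding, split 1:10 on day 6 into fresh medium with the same compound level, and read on day 11 by CellTiter-Glo. IC50 taken after 10 days of exposure.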

[3] = target: T1, PRMT5/MEP50 complex (Homo sapiens, UniProt O14744); test: PRMT5:MEP50 HotSpot Assay (full-length histone H2A substrate, plus and minus MTA); assay type: biochemical; details: IC50 + 2 μM MTA, in the presence of 2 μM MTA
T1 construct: purchased Reaction Biology Corporation
T1 sequence (O14744 2-637 limits assumed): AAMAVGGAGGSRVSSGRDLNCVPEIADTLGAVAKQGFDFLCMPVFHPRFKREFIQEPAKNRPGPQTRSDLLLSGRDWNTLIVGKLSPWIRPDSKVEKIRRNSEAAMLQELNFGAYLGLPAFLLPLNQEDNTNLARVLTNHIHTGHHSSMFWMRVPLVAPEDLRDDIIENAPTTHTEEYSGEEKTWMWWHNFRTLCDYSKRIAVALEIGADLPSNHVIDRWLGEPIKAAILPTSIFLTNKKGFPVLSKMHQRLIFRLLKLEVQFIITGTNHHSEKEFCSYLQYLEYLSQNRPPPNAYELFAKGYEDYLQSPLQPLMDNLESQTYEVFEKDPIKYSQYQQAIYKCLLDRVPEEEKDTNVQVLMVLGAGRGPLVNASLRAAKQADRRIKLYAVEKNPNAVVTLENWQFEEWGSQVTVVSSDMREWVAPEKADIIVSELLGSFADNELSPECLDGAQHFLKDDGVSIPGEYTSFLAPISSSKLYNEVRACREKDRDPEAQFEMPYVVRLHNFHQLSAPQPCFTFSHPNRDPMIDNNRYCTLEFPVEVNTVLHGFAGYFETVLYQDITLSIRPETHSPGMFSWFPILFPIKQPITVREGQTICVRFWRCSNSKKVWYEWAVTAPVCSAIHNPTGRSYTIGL
T1 sequence (Q9BQA1 2-342 partner limits assumed): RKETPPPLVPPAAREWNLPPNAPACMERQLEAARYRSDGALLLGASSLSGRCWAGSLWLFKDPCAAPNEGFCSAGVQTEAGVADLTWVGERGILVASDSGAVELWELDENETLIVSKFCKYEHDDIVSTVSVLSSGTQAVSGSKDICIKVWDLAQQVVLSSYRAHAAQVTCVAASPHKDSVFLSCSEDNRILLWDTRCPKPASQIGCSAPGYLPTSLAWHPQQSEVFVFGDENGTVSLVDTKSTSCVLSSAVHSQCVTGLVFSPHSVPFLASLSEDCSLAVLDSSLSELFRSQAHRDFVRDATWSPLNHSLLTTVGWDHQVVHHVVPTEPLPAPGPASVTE
In short: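 Radiometric HotSpot format using recombinant full-length histone H2A as substrate, run with and without MTA. Reactions were stopped and spotted onto filter paper. Tritiated H2A was quantified by scintillation counting.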

| IC50 [2] | IC50 [3] | IC50 ([2]; Homo sapiens, HCT-116, 240 h) | Compound | IC50 [1] |
| --- | --- | --- | --- | --- |
|  |  |  | Cn1ncc(-c2ccc3c(=O)[nH]nc(CN)c3c2)c1-c1c(F)c(Cl)cc(OC2CC2)c1C#N [Example 16-8, 2-(4-(4-(aminomethyl)-1-oxo-1,2-dihydrophthalazin-6-yl)-1-methyl-1H-pyrazol-5-yl)-4-chloro-6-cyclopropoxy-3-fluorobenzonitrile] | 0.8 nM |
| 10 nM | 81 nM |  | Cn1ncc(-c2cc(Cl)c3c(=O)[nH]nc(CN)c3c2)c1-c1c(F)c(Cl)cc(OC2CC2)c1C#N (single isomer, unassigned) [Example 16-28, (M)-2-[4-[4-(aminomethyl)-8-chloro-1-oxo-2H-phthalazin-6-yl]-2-methyl-pyrazol-3-yl]-4-chloro-6-(cyclopropoxy)-3-fluoro-benzonitrile] |  |
|  | > 10000 nM | 10000 nM | Cn1ncc(-c2ccc3c(=O)[nH]nc(C4(N)CCC4)c3c2)c1-c1sc2ccccc2c1C#N [Example 9-10, 2-(4-(4-(1-aminocyclobutyl)-1-oxo-1,2-dihydrophthalazin-6-yl)-1-methyl-1H-pyrazol-5-yl) benzo[b]thiophene-3-carbonitrile] |  |
| 17 nM | 36.4 nM |  | Cn1ncc(-c2ccc3c(=O)[nH]nc(CN)c3c2)c1-c1c(F)ccc(CC2CC2)c1C#N (single isomer, unassigned) [Example 16-30, (M)-2-(4-(4-(aminomethyl)-1-oxo-1,2-dihydrophthalazin-6-yl)-1-methyl-1H-pyrazol-5-yl)-6-(cyclopropylmethyl)-3-fluorobenzonitrile] |  |
| 12 nM | 60.1 nM |  | Cn1ncc(-c2ccc3c(=O)[nH]nc(CN)c3c2)c1-c1c(F)c(Cl)c2c(c1C#N)OCCC2 (single isomer, unassigned) [Example 16-40, (M)-7-(4-(4-(aminomethyl)-1-oxo-1,2-dihydrophthalazin-6-yl)-1-methyl-1H-pyrazol-5-yl)-5-chloro-6-fluorochroman-8-carbonitrile] |  |
| 241 nM | 269 nM |  | C[C@H]1C[C@@H]1Oc1ccc(F)c(-c2c(-c3ccc4c(=O)[nH]nc(CN)c4c3)cnn2C)c1C#N (single isomer, unassigned) [Example 16-67] |  |
| 1070 nM | 909 nM |  | CCOc1cc(-c2cnn(C)c2-c2c(F)ccc(OC3CC3)c2C#N)cc2c(CN)n[nH]c(=O)c12 (atropisomer, axis not shown; (P)) [Example 16-73, (P)-2-[4-[4-(aminomethyl)-8-ethoxy-1-oxo-2H-phthalazin-6-yl]-2-methyl-pyrazol-3-yl]-6-(cyclopropoxy)-3-fluoro-benzonitrile] |  |
| 1690 nM | 446 nM |  | Cn1ncc(-c2ccc3c(=O)[nH]nc(CN)c3c2)c1-c1c(C#N)cc2cccnc2c1Cl (atropisomer, axis not shown; (P)) [Example 16-83, (P)-7-(4-(4-(aminomethyl)-1-oxo-1,2-dihydrophthalazin-6-yl)-1-methyl-1H-pyrazol-5-yl)-8-chloroquinoline-6-carbonitrile] |  |
| 17 nM | 8.43 nM |  | Cc1cc(OC2CC2)c(C#N)c(-c2c(-c3cc(Cl)c4c(=O)[nH]nc(CN)c4c3)cnn2C)c1F (single isomer, unassigned) [Example 16-26, (M)-2-[4-[4-(aminomethyl)-8-chloro-1-oxo-2H-phthalazin-6-yl]-2-methyl-pyrazol-3-yl]-6-(cyclopropoxy)-3-fluoro-4-methyl-benzonitrile] |  |
| 339 nM | 253 nM |  | Cn1ncc(-c2cc(Cl)c3c(=O)[nH]nc(CN)c3c2)c1-c1c(F)c(Cl)c2ccccc2c1C#N (single isomer, unassigned) [Example 16-57, (P)-2-[4-[4-(aminomethyl)-8-chloro-1-oxo-2H-phthalazin-6-yl]-2-methyl-pyrazol-3-yl]-4-chloro-3-fluoro-naphthalene-1-carbonitrile] |  |
|  | 102 nM | 400 nM | Cn1ncc(-c2ccc3c(=O)[nH]nc(CN)c3c2)c1-c1sc2cc(Cl)ccc2c1C#N [Example 4-270, 2-(4-(4-(aminomethyl)-1-oxo-1,2-dihydrophthalazin-6-yl)-1-methyl-1H-pyrazol-5-yl)-6-chlorobenzo-[b]thiophene-3-carbonitrile] |  |
| 17 nM | 139 nM |  | CCOc1cc(-c2cnn(C)c2-c2c(F)c(Cl)cc(OC3CC3)c2C#N)cc2c(CN)n[nH]c(=O)c12 (single isomer, unassigned) [Example 16-78, (M)-2-[4-[4-(aminomethyl)-8-ethoxy-1-oxo-2H-phthalazin-6-yl]-2-methyl-pyrazol-3-yl]-4-chloro-6-(cyclopropoxy)-3-fluoro-benzonitrile] |  |
| 403 nM | 2040 nM |  | Cn1ncc(-c2ccc3c(=O)[nH]nc(CN)c3c2)c1-c1c(C#N)cc2ncccc2c1F (single isomer, unassigned) [Example 16-92, (M)-6-[4-[4-(aminomethyl)-1-oxo-2H-phthalazin-6-yl]-2-methyl-pyrazol-3-yl]-5-fluoro-quinoline-7-carbonitrile] |  |
|  | 800 nM | 1230 nM | Cc1c(F)c(-c2c(-c3cc(C)c4c(=O)[nH]nc(CN)c4c3)cnn2C)c(C#N)c2ncc(Cl)cc12 (single isomer, unassigned) [Example 16-95, (P)-7-(4-(4-(aminomethyl)-8-methyl-1-oxo-1,2-dihydrophthalazin-6-yl)-1-methyl-1H-pyrazol-5-yl)-3-chloro-6-fluoro-5-methylquinoline-8-carbonitrile] |  |
| 10200 nM | 6540 nM |  | Cn1ncc(-c2ccc3c(=O)[nH]nc(CN)c3c2)c1-c1c(C#N)ccc2c1COC2 (single isomer, unassigned) [Example 16-69, (M)-4-[4-[4-(aminomethyl)-1-oxo-2H-phthalazin-6-yl]-2-methyl-pyrazol-3-yl]-1,3-dihydroisobenzofuran-5-carbonitrile] |  |
|  | 128 nM | 126 nM | Cn1ncc(-c2ccc3c(=O)[nH]nc(CN)c3c2)c1-c1sc2c(C3CCCO3)cccc2c1C#N (centres unmarked) [Example 12-21, 2-[4-[4-(aminomethyl)-1-oxo-2H-phthalazin-6-yl]-2-methyl-pyrazol-3-yl]-7-THF-2-yl-benzothiophene-3-carbonitrile hydrochloride] |  |
| 752 nM | 157 nM |  | Cn1ncc(-c2ccc3c(=O)[nH]nc(CN)c3c2)c1-c1c(C#N)cc2ccccc2c1F (single isomer, unassigned) [Example 16-53, (P)-3-[4-[4-(aminomethyl)-1-oxo-2H-phthalazin-6-yl]-2-methyl-pyrazol-3-yl]-4-fluoro-naphthalene-2-carbonitrile] |  |
|  | 376 nM | 1440 nM | Cn1ncc(-c2ccc3c(=O)[nH]nc(CN)c3c2)c1-c1sc2cnccc2c1C#N [Example 4-273, 2-[4-[4-(aminomethyl)-1-oxo-2H-phthalazin-6-yl]-2-methyl-pyrazol-3-yl]thieno[2,3-c]pyridine-3-carbonitrile] |  |
|  | > 1000 nM | 1860 nM | Cc1c(F)c(-c2c(-c3cc(Cl)c4c(=O)[nH]nc(CN)c4c3)cnn2C)c(C#N)c2ncc(Cl)cc12 (atropisomer, axis not shown; (P)) [Example 16-97, (P)-7-(4-(4-(aminomethyl)-8-chloro-1-oxo-1,2-dihydrophthalazin-6-yl)-1-methyl-1H-pyrazol-5-yl)-3-chloro-6-fluoro-5-methylquinoline-8-carbonitrile] |  |
| 462 nM | 542 nM |  | Cn1ncc(-c2ccc3c(=O)[nH]nc(CN)c3c2)c1-c1c(C#N)ccc2c1COC2 (single isomer, unassigned) [Example 16-70, (P)-4-[4-[4-(aminomethyl)-1-oxo-2H-phthalazin-6-yl]-2-methyl-pyrazol-3-yl]-1,3-dihydroisobenzofuran-5-carbonitrile] |  |
| 215 nM | 318 nM |  | Cc1c(F)c(-c2c(-c3cc(Cl)c4c(=O)[nH]nc(CN)c4c3)cnn2C)c(C#N)c2ccccc12 (single isomer, unassigned) [Example 16-59, (P)-2-[4-[4-(aminomethyl)-8-chloro-1-oxo-2H-phthalazin-6-yl]-2-methyl-pyrazol-3-yl]-3-fluoro-4-methyl-naphthalene-1-carbonitrile] |  |
